Measured values from patent US20150164946A1, “Thrush Treatment Paste” (priority 2013, published 2015).

Conditions: copper sulfate concentration up to 70% (weight percent) in the composition, applied to horse hoofs

O=S(=O)([O-])[O-].[Cu+2] [copper sulfate]
harmfulness in this usage (topical hoof thrush treatment): not be harmful
